Data published in patent US12544417B2, “Oral film and stick jelly for improving absorption in the oral mucosa, antioxidant activity, anti-inflammatory activity, and liver function of humans and companion animals” (ESTHER FORMULA CO., LTD., priority 2022, dated 2026).

Test: DPPH-free radical scavenging
Assay type: biochemical
Conditions: ascorbic acid 100 μg/mL, positive control group
Description: 1% of the oral disintegrating film (Example 1-1), the oral mucosal adhesive film (Example 3-1), and the stick jelly (Example 4-1) were homogeneously dissolved, and centrifuged at 10,000 rpm and at 4° C. for 5 minutes to prepare a CFE (cell-free extract). 3.0 mL of a […] (DPPH) solution (5 mg/100 mL ethanol) was mixed with 500 μL of the prepared CFE, and the same amount of ethanol, MRS solution, and ascorbic acid (100 μg/mL) were used as a control group, a blank, and a comparative group, respectively. Then, the result was mixed with the DPPH solution and incubated in a dark room for 30 minutes, absorbance at 517 nm was measured, and the antioxidant activity was converted into % using Equation 1 below. [formula]

O=C1O[C@H]([C@@H](O)CO)C(O)=C1O [ascorbic acid]
DPPH-free radical scavenging (%): 90%
